Assay results from paper PMC12637021, “Talin–tensin3 interactions regulate fibrillar adhesion formation and tensin3 phase separation” (The Journal of Cell Biology, 2025).
Several values for one entry are separate records, joined by “and”; a condition that tells them apart may be missing. Identical values can stand only once. Where a SMILES comes first, the peptide text is derived from it.

Tests used:
[1] = target: T1, talin R3 domain (residues 787–911) (Mus musculus, UniProt P26039); test: 1H-15N HSQC NMR titration of talin R3; format: binding
T1 construct: recombinant talin R3 domain (residues 787–911); hexahistidine-tag followed by TEV protease cleavage site (N); made in house; host or cells: E. coli BL21
Procedure: (§1) Recombinant mouse talin1 R3 and R7R8 domains were expressed using the pET-151/D-TOPO vector. The recombinant mouse talin R4 domain was expressed using the pET-28a(+)vectors. Both vectors include an N-terminal hexahistidine-tag followed by a tobacco etch virus protease cleavage site. Proteins were overexpressed in BL21 cells and purified via nickel-affinity chromatography with a single-step elution at 250 mM imidazole concentration. For NMR studies, uniformly ^15N-labeled proteins were produced by growing cells in 2xM9 minimal medium supplemented with 1 g/Liter ^15N-ammonium chloride (^15NH4Cl) as the sole nitrogen source. Following purification, proteins were concentrated and buffer-exchanged using PD-10 desalting columns (Cytiva). Final protein concentrations were determined by measuring absorbance at 280 nm using a NanoDrop spectrophotometer (Thermo Fisher Scientific), based on calculated extinction coefficients.
(§2) NMR spectra were acquired on Bruker Neo 700 MHz (for talin R3) or 800 MHz (for talin R4 and R7R8) spectrometers equipped with TCI cryoprobes. All experiments were performed at 298 K using 200 µM of uniformly ^15N-labeled talin R3, R4, or R7R8 in 20 mM sodium phosphate buffer (pH 6.4) containing 50 mM NaCl, 0.1 mM tris(2-carboxyethyl)phosphine (TCEP), and 5% (vol/vol) D2O. For titration experiments, synthetic tensin3 TBS peptide (aa 692–718) was added at final concentrations of 50, 100, 200, 400, and 800 µM. NMR data were processed using TopSpin (Bruker) and analyzed with Collaborative Computational Project for NMR software AnalysisAssign (version 3.2). HSQC spectra were measured using a standard Bruker pulse sequence. HSQC signals of the free proteins were assigned using the available backbone chemical shift data from the Biological Magnetic Resonance Data Bank (BMRB entries; R3: 17332; R4: 18313). The signals of the bound state were assigned by following the chemical shift changes with the increased concentrations of the peptide. Residue-specific chemical shift differences were calculated using HSQC spectra in the presence of 400 µM tensin3 TBS peptide.

talin R11 = details: previous observation; ref Atherton et al., 2022; read-out: Kd, talin R11 with tensin3 TBS; cited from earlier work
[2] = target: T2, talin R4 domain (residues 913–1,044) (Mus musculus, UniProt P26039); test: ITC, tensin3 TBS peptide binding to talin R4; details: ITC 25°C, pH 6.5; mean ± SD from triplicate measurements
T2 construct: R4 domain (residues 913–1,044); hexahistidine-tag followed by TEV protease cleavage site (N); made in house; host or cells: E. coli BL21
From the text: (§3) Figure 3. Structural characterization of the multidomain talin–tensin3 interaction. (A) Representative images of NIH3T3 cells co-expressing GFP-R11DD-cBAK WT or carrying K2024E, K2031E, or both (K2024E+K2031E) with mCh-IDR. (B) Mitochondrial pulldown experiment using the same constructs as in A. (C) AlphaFold3 model of the talin R8–tensin3 TBS complex. TBS (orange) was predicted to engage the α2-α3 face of the R8 bundle (cyan). K1500 and R1510 (brown) are highlighted on the […]. (D) NIH3T3 cells co-expressing GFP-R7R8-cBAK WT or carrying K1500E or R1510E with mCh-IDR. (E) Mitochondrial pulldown experiment using constructs as in D. (F) Cells co-expressing mCh-TNS3-WT-cBAK and GFP-TLN1 constructs (R8m, K1500E; R11m, K2024E+K2031E). mCh-TNS3-L702E-cBAK was used as a negative control. (G and H) Overlay ^1H-^15N HSQC spectra of ^15N-labeled talin R3 (G) and talin R4 (H), at a concentration of 200 µM, in the absence (blue) and presence (red) of tensin3 TBS peptide at a molar ratio of 1:2. Magnified views in the right panels show the cross-peaks corresponding to the residues K869 and V871 of talin R3 (G) and the residues S927 and G969 of talin R4 (H), illustrating the progressive chemical shift changes at peptide molar ratios of 0 (blue), 0.25 (orange), 0.5 (green), 1.0 (coral), and 2.0 (red). The HSQC spectra of R3 and R4 were recorded at 700 and 800 MHz, respectively. (I and J) Mapping of the residue-specific CSD (related to Fig. S2, H and I) on the AlphaFold3 models of talin R3 (I) and R4 (J) colored in cyan, respectively, in complex with tensin3 TBS (orange). […]
(§4) Recombinant mouse talin1 R3 and R7R8 domains were expressed using the pET-151/D-TOPO vector. […] Final protein concentrations were determined by measuring absorbance at 280 nm using a NanoDrop spectrophotometer (Thermo Fisher Scientific), based on calculated extinction coefficients.
(§5) ITC experiments were performed using a MicroCal PEAQ-ITC automated instrument (Malvern Panalytical) at 25°C. […] Data were analyzed using the one-site binding model implemented in MicroCal PEAQ-ITC analysis software (Malvern Panalytical).

[3] = target: T3, talin R7R8 region (residues 1,359–1,659) (Mus musculus, UniProt P26039); test: 1H-15N HSQC NMR titration of talin R7R8; format: binding; details: intermediate exchange
T3 construct: R7R8 region (residues 1,359–1,659); hexahistidine-tag followed by TEV protease cleavage site (N); made in house; host or cells: E. coli BL21
Procedure: as §1, with “Following purification, proteins were concentrated and buffer-exchanged using PD-10 desalting columns (Cytiva).” left out
NMR spectra were acquired on Bruker Neo 700 MHz (for talin R3) or 800 MHz (for talin R4 and R7R8) spectrometers equipped with TCI cryoprobes. […] NMR data were processed using TopSpin (Bruker) and analyzed with Collaborative Computational Project for NMR software AnalysisAssign (version 3.2). HSQC spectra were measured using a standard Bruker pulse sequence. […] Residue-specific chemical shift differences were calculated using HSQC spectra in the presence of 400 µM tensin3 TBS peptide.

[4] = target: T3, talin R7R8 region (residues 1,359–1,659); test: ITC, tensin3 TBS peptide binding to talin R7R8; details: ITC 25°C, pH 6.5; mean ± SD from triplicate measurements
From the text: as §3, §4, §5

[5] = target: T1, talin R3 domain (residues 787–911); test: ITC, tensin3 TBS peptide binding to talin R3; details: ITC 25°C, pH 6.5; mean ± SD from triplicate measurements
From the text: as §3, §4, §5

[6] = target: T2, talin R4 domain (residues 913–1,044); test: 1H-15N HSQC NMR titration of talin R4; format: binding
Procedure: as §1, §2

[7] = 1:2 molar ratio (400 µM TBS peptide), threshold 5× SD

T1 sequence (P26039 787-911): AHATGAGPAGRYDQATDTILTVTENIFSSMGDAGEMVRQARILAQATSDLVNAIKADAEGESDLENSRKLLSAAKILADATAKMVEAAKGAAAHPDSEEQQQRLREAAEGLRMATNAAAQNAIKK
T3 sequence (P26039 1359-1659 limits assumed): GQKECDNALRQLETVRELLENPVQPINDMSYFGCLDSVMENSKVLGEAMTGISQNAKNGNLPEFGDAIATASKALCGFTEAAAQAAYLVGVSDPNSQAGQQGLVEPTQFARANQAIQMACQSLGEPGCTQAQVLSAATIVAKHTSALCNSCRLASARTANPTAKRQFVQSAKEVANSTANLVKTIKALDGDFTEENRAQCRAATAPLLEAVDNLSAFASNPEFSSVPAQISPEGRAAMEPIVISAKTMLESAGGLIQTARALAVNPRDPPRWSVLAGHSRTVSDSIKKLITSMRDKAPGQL
T2 sequence (P26039 913-1044 limits assumed): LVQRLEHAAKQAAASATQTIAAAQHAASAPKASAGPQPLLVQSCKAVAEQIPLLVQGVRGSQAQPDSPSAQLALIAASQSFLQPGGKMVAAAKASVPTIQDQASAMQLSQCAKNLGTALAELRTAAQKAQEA

HSQC spectral changes on addition of TBS, R3 ([1]; 200 µM 15N-talin R3, 298 K, 20 mM sodium phosphate pH 6.4, 50 mM NaCl, 0.1 mM TCEP, 5% D2O, 700 MHz, molar ratio up to 1:2): substantial changes
location of significant chemical shift perturbations, R3 [1, 7]: α2 and α3 helices of R3
Kd range suggested by exchange rate in NMR, R3 ([1]; intermediate exchange): micromolar (µM) range
Gibbs free energy (ΔG), R4-TBS [2]: -6.29 ± 0.086 kcal/mol
enthalpy change (ΔH), R4-TBS [2]: 2.94 ± 0.586 kcal/mol and 2.94 ± 0.574 kcal/mol
entropy contribution (−TΔS), R4-TBS [2]: -9.32 ± 0.626 kcal/mol
Kd range suggested by exchange rate in NMR, R7R8 [3]: micromolar (µM) range
Gibbs free energy (ΔG), R7R8-TBS [4]: -6.549 ± 0.0406 kcal/mol
enthalpy change (ΔH), R7R8-TBS [4]: 10.21 ± 0.492 kcal/mol
entropy contribution (−TΔS), R7R8-TBS [4]: -16.75 ± 0.464 kcal/mol
Gibbs free energy (ΔG), R3-TBS [5]: -6.41 ± 0.0478 kcal/mol
enthalpy change (ΔH), R3-TBS [5]: 1.68 ± 0.148 kcal/mol and 1.68 ± 0.14 kcal/mol
entropy contribution (−TΔS), R3-TBS [5]: -8.08 ± 0.0956 kcal/mol
HSQC spectral changes on addition of TBS, R4 ([6]; 200 µM 15N-talin R4, 298 K, 20 mM sodium phosphate pH 6.4, 50 mM NaCl, 0.1 mM TCEP, 5% D2O, 800 MHz, molar ratio up to 1:2): substantial changes
location of significant chemical shift perturbations, R4 [6, 7]: α1 and α2 helices of R4
Kd range suggested by exchange rate in NMR, R4 ([6]; intermediate exchange): micromolar (µM) range
Structure (SMILES): CC[C@H](C)[C@H](NC(=O)[C@H](CO)NC(=O)[C@H](CCC(N)=O)NC(=O)[C@H](CC(=O)O)NC(=O)[C@@H](NC(=O)[C@H](CC(=O)O)NC(=O)[C@H](CC(C)C)NC(=O)[C@@H](N)[C@@H](C)O)[C@@H](C)CC)C(=O)N[C@@H](CCC(=O)O)C(=O)N[C@@H](CCC(N)=O)C(=O)N[C@@H](CC(C)C)C(=O)N[C@@H](CC(N)=O)C(=O)N[C@@H](CCCNC(=N)N)C(=O)N[C@@H](CC(C)C)C(=O)N[C@H](C(=O)N[C@@H](CC(C)C)C(=O)N[C@@H](CCC(=O)O)C(=O)N[C@@H](CC(C)C)C(=O)N[C@@H](CC(=O)O)C(=O)N1CCC[C@H]1C(=O)N[C@H](C(=O)N[C@@H](Cc1ccccc1)C(=O)N[C@@H](CCC(=O)O)C(=O)N1CCC[C@H]1C(=O)N[C@H](C(=O)N1CCC[C@H]1C(=O)N[C@H](C(=O)O)[C@@H](C)O)[C@@H](C)CC)[C@@H](C)O)[C@@H](C)CC [tensin3 TBS] (H-TLDIDQSIEQLNRLILELDPTFEPIPT-OH; N-terminus and C-terminus assumed)
Kd (talin R11): 17 µM
